Measured values published in ChEMBL document CHEMBL1201862, “PubChem BioAssay data set” (2004).
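Cultured in 96-well plates, cells were exposed to test compound for 48 hours across five concentrations. Abbreviation: GI50, concentration required for 50% inhibition of growth.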 Calls of active or inactive are those of the source. Cut-off read from the data, not from the text of the source: active = GI50 up to about 1.1 µM and inactive = higher.

Tests used:
Experiment in all cases: NCI-60 cell line screen, 48 h
[1] = tested on: MOLT-4
[2] = tested on: A549
[3] = tested on: KM-20L2
[4] = tested on: TK-10
[5] = tested on: OVCAR-8
[6] = tested on: NCI-H23
[7] = tested on: Malme-3M
[8] = tested on: SW-620
[9] = tested on: SK-MEL-28
[10] = tested on: ACHN
[11] = tested on: RXF 631
[12] = tested on: OVCAR-5
[13] = tested on: NCI-H460
[14] = tested on: M19-MEL
[15] = tested on: LXFL 529
[16] = tested on: UACC-257
[17] = tested on: KM12
[18] = tested on: NCI-H226
[19] = tested on: SF-295
[20] = tested on: 786-0
[21] = tested on: M14
[22] = tested on: EKVX
[23] = tested on: HOP-18
[24] = tested on: CAKI-1
[25] = tested on: SNB-75
[26] = tested on: NCI-H522
[27] = tested on: UACC-62
[28] = tested on: HOP-92
[29] = tested on: K562
[30] = tested on: DMS-114
[31] = tested on: HT-29
[32] = tested on: CCRF-CEM
[33] = tested on: UO-31
[34] = tested on: HL-60
[35] = tested on: DLD-1
[36] = tested on: SN12C
[37] = tested on: RXF 393
[38] = tested on: COLO 205
[39] = tested on: DMS-273
[40] = tested on: U-251
[41] = tested on: HCT-116
[42] = tested on: OVCAR-4
[43] = tested on: SK-OV-3
[44] = tested on: A498
[45] = tested on: SF-539
[46] = tested on: OVCAR-3
[47] = tested on: SNB-19
[48] = tested on: HOP-62
[49] = tested on: IGROV-1
[50] = tested on: HCC 2998
[51] = tested on: LOX IMVI
[52] = tested on: HCT-15
[53] = tested on: RPMI-8226
[54] = tested on: SNB-78
[55] = tested on: SF-268
[56] = tested on: SR
[57] = tested on: XF498
[58] = tested on: SK-MEL-2
[59] = tested on: SK-MEL-5

Measured: GI50

Cc1c(C(=O)/C=C/c2cccc3ccccc23)[n+]([O-])c2ccccc2[n+]1[O-]
inactive: [1] 11.5 µM | [2] 16.4 µM | [3] 14.6 µM | [4] 20.3 µM | [5] 11 µM | [6] 12.8 µM | [7] 18.6 µM | [8] 10.4 µM | [9] 13 µM | [10] 15.3 µM | [11] 18.1 µM | [12] 15.2 µM | [13] 15.3 µM | [14] 11.9 µM | [15] 8.02 µM | [16] 13.5 µM | [17] 14 µM | [18] 14 µM | [19] 16.1 µM | [20] 12.6 µM | [21] 13.7 µM | [22] 14.1 µM | [23] 14.4 µM | [24] 7.85 µM | [25] 13 µM | [26] 5.9 µM | [27] 11.3 µM | [28] 10.1 µM | [29] 4.72 µM | [30] 4.85 µM | [31] 12.3 µM | [32] 3.2 µM | [33] 17.3 µM | [34] 7.41 µM | [35] 10.6 µM | [36] 14.1 µM | [37] 10.1 µM | [38] 13.9 µM | [39] 11.7 µM | [40] 14.8 µM | [41] 6.12 µM | [42] 4.47 µM | [43] 17.3 µM | [44] 16.9 µM | [45] 11.4 µM | [46] 10.7 µM | [47] 15.7 µM | [48] 15.8 µM | [49] 12.9 µM | [50] 16.8 µM | [51] 7.93 µM | [53] 12 µM | [54] 6.84 µM | [55] 14.7 µM | [56] 12.7 µM
12.7 µM: [52]

CCOC(=O)C1S/C(=N\c2ccccc2)N=C1C (stereo unspecified)
inactive: [1] 38.2 µM | [57] > 100 µM | [2] 55.5 µM | [3] 55.7 µM | [4] > 100 µM | [5] > 100 µM | [6] 67.3 µM | [7] > 100 µM | [8] > 100 µM | [9] > 100 µM | [10] 39.7 µM | [11] > 100 µM | [12] 96.8 µM | [13] 79.1 µM | [14] > 100 µM | [15] 65.8 µM | [16] > 100 µM | [17] > 100 µM | [18] 74 µM | [19] > 100 µM | [20] 77.8 µM | [58] > 100 µM | [22] 64.1 µM | [23] > 100 µM | [25] 26.9 µM | [26] 44.7 µM | [28] 22.3 µM | [29] 40.7 µM | [30] 59 µM | [31] 30.3 µM | [33] 53.3 µM | [34] 59.6 µM | [35] 49.9 µM | [36] > 100 µM | [37] > 100 µM | [38] > 100 µM | [40] > 100 µM | [41] > 100 µM | [42] 68.7 µM | [44] > 100 µM | [45] 73.5 µM | [46] 97.1 µM | [47] > 100 µM | [48] > 100 µM | [49] > 100 µM | [50] > 100 µM | [51] 47.3 µM | [53] 51.2 µM | [54] 83 µM | [55] 60.1 µM | [56] 45.3 µM
55.5 µM: [52]

O=C(O)CNS(=O)(=O)c1ccc(NC(=O)c2ccc(F)cc2)cc1
inactive: [1] > 100 µM | [57] > 100 µM | [2] > 100 µM | [3] > 100 µM | [4] > 100 µM | [5] > 100 µM | [6] > 100 µM | [7] > 100 µM | [8] > 100 µM | [9] > 100 µM | [10] > 100 µM | [11] > 100 µM | [12] > 100 µM | [13] > 100 µM | [14] > 100 µM | [15] > 100 µM | [16] > 100 µM | [17] > 100 µM | [19] > 100 µM | [20] > 100 µM | [21] > 100 µM | [58] > 100 µM | [22] > 100 µM | [23] > 100 µM | [24] > 100 µM | [25] > 100 µM | [26] > 10 µM | [27] > 100 µM | [28] > 100 µM | [29] > 100 µM | [31] > 100 µM | [32] > 100 µM | [59] > 100 µM | [33] > 100 µM | [34] > 100 µM | [35] > 100 µM | [36] > 100 µM | [37] 83 µM | [38] > 100 µM | [39] > 100 µM | [40] > 100 µM | [42] > 100 µM | [43] > 100 µM | [44] > 100 µM | [45] > 100 µM | [46] > 100 µM | [47] > 100 µM | [49] > 100 µM | [50] > 100 µM | [51] > 100 µM | [53] > 100 µM | [55] > 100 µM
> 100 µM: [52]
